Results from ChEMBL document CHEMBL5465560, “Selectivity Literature for EUbOPEN Chemogenomic Library” (2024).

Legend:
[1] = target: T1, SNF-related serine/threonine-protein kinase (Homo sapiens) (UniProt Q9NRH2); assay: Selectivity interaction (KinomeScan (DiscoverX)) EUB0000229b SNRK; conditions: at 10 µM
T1 sequence (whole entry): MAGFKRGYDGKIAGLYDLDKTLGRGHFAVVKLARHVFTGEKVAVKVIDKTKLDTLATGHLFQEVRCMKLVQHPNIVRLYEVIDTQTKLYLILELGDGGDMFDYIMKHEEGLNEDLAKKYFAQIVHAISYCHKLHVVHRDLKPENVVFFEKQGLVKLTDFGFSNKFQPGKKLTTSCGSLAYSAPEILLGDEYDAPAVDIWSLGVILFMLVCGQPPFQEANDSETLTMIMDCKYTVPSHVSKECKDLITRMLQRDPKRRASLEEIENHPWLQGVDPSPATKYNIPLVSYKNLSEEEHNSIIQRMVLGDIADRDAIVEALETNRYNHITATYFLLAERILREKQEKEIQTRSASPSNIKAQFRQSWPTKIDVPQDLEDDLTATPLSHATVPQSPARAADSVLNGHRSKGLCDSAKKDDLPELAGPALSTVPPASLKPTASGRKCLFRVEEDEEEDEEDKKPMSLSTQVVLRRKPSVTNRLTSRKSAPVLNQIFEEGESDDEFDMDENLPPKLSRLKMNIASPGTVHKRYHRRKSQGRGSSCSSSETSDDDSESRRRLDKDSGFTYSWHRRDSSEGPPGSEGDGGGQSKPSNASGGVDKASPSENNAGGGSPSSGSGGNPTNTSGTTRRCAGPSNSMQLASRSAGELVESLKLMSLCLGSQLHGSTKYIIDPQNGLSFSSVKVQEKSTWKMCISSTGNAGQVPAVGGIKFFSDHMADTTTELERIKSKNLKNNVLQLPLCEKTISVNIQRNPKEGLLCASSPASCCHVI

[2] = target: Tyrosine-protein kinase SYK (Homo sapiens, UniProt P43405); assay: Selectivity interaction (Upstate Kinase Profiler service (Millipore)) EUB0000056c SYK; conditions: at 1 µM
[3] = target: Serine/threonine-protein kinase pim-1 (Homo sapiens, UniProt P11309); assay: Selectivity interaction (Millipore kinase profiler) EUB0000124b PIM1; conditions: at 10 µM
Chain of Serine/threonine-protein kinase pim-1 (P11309 whole entry, looked up): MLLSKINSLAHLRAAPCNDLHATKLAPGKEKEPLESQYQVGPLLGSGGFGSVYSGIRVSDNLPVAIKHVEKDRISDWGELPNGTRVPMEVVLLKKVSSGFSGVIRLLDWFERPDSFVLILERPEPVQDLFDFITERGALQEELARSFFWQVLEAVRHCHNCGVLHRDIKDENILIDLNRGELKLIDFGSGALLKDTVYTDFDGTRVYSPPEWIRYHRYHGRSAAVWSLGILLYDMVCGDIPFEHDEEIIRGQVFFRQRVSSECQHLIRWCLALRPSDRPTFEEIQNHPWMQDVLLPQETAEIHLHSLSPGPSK

[4] = target: T2, Serine/threonine-protein kinase Sgk2 (Homo sapiens) (UniProt Q9HBY8); assay: Selectivity interaction (SelectScreen profiling (Invitrogen)) EUB0000607a SGK2; conditions: at 2 µM
T2 sequence (whole entry): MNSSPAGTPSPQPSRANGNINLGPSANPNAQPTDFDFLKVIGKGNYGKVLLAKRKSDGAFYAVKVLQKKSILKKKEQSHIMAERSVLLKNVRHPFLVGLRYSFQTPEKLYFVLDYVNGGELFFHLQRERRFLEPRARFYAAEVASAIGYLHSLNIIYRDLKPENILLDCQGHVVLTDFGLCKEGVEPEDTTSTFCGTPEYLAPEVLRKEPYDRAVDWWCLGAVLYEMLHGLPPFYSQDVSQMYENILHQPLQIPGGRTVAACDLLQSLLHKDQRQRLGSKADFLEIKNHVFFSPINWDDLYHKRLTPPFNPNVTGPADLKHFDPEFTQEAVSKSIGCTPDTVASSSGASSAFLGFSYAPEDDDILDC

[5] = target: T3, Protein arginine N-methyltransferase 9 (Homo sapiens) (UniProt Q6P2P2); assay: Selectivity interaction (Methyltransferase screen (radiometric assays, panel of 8 PRMTs, 21 protein lysine methyltransferases, 3 DNA methyltransferases, and one RNA methyltransferase)) EUB0000271b PRMT9
T3 sequence (whole entry): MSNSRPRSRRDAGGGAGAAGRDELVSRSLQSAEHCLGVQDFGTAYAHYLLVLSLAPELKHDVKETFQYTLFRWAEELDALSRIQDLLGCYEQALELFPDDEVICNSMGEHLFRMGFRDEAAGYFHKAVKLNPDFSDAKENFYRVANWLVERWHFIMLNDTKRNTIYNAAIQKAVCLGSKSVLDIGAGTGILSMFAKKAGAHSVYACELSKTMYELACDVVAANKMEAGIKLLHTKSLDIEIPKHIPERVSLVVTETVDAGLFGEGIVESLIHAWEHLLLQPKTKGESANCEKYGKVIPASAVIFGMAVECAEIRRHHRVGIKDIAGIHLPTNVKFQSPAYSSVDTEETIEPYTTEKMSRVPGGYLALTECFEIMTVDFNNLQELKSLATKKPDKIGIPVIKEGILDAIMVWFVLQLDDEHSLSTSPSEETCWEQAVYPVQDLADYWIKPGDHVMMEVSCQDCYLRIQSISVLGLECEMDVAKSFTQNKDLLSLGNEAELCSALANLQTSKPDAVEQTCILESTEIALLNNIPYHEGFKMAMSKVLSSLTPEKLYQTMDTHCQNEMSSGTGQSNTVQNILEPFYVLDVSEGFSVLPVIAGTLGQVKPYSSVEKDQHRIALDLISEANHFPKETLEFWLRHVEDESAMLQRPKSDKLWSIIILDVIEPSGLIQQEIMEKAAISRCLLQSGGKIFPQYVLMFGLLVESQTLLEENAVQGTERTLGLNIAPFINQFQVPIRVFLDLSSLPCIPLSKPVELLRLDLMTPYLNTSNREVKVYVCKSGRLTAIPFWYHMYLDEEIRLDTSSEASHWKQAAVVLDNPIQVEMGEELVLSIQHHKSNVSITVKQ

[6] = target: Phosphatidylinositol 4-phosphate 3-kinase C2 domain-containing subunit beta (Homo sapiens) (UniProt O00750); assay: Selectivity interaction (Ambit KINOMEscan and KiNATiv profiling in Jurkat cells) EUB0000090b PIK3C2B; type: cell-based; conditions: at 1 µM
Chain of Phosphatidylinositol 4-phosphate 3-kinase C2 domain-containing subunit beta (Homo sapiens) (O00750 whole entry, the tested form may be a part): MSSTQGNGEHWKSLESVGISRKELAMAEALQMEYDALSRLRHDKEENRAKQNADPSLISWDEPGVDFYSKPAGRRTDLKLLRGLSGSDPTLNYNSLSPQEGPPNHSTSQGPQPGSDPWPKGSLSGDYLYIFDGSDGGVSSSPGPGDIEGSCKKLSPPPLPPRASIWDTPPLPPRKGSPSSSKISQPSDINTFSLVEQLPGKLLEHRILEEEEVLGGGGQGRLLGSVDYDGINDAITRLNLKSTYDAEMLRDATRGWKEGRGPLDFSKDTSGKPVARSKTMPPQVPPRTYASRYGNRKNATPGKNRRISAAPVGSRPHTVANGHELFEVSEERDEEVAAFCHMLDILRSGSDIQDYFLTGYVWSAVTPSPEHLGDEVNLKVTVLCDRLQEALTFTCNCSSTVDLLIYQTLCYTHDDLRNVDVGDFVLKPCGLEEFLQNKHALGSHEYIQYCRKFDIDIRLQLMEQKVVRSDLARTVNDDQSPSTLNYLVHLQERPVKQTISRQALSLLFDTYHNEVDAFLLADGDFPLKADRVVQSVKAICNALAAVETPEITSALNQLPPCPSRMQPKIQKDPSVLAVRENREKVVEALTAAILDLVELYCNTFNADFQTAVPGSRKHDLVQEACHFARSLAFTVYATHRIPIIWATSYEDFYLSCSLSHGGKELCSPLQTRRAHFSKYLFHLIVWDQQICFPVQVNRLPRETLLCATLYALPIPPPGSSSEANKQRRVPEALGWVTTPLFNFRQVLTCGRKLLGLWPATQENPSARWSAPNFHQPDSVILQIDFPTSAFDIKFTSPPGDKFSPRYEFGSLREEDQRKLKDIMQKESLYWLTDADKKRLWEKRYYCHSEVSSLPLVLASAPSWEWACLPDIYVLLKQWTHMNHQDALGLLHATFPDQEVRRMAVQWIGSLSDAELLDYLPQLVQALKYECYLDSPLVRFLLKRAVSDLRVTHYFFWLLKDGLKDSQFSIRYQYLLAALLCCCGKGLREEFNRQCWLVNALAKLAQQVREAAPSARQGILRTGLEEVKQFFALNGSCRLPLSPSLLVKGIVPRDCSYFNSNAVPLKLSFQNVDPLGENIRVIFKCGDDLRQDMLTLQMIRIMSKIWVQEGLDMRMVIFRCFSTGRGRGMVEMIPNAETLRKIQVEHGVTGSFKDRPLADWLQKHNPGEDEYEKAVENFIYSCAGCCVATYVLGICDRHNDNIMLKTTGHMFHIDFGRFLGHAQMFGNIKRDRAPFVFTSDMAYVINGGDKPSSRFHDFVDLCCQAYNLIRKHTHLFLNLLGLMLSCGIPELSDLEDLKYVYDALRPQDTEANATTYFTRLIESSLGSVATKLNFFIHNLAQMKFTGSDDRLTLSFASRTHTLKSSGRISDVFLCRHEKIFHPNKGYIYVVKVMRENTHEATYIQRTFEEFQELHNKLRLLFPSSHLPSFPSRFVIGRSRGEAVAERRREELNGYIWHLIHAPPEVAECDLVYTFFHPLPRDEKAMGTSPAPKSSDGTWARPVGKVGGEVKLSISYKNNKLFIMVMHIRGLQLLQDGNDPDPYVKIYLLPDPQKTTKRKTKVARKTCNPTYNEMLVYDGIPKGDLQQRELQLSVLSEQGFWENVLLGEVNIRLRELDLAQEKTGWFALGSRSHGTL

[7] = target: Mitogen-activated protein kinase 3 (Homo sapiens, UniProt P27361); assay: Selectivity interaction (ActivX KiNativ screen (ex vivo kinase selectivity in human PBMCs)) EUB0001619a MAPK3; type: cell-based; conditions: PBMC, at 1 µM
Chain of Mitogen-activated protein kinase 3 (P27361 whole entry): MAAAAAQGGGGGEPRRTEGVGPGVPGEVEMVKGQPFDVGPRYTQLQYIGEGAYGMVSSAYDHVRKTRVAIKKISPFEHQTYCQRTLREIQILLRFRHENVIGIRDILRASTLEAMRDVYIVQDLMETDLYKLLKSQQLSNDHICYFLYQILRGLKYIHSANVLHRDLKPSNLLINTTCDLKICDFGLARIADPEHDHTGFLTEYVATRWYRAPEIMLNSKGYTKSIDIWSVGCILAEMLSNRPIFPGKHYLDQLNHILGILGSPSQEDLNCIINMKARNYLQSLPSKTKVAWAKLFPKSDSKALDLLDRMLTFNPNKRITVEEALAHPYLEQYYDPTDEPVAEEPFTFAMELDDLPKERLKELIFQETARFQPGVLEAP

Compound: COc1cc(N(C)c2ccnc3ccc(C(F)(F)F)cc23)cc(OC)c1OC
- % binding [1]: 53%

Compound: Cc1ccc(-c2ccc3c(ccc4sc5c(c43)NC[C@@H](C)NC5=O)n2)cn1
- % of inhibition [2]: -7%

Compound: CC(=O)Nc1cccc(-n2c(=O)n(C3CC3)c(=O)c3c(Nc4ccc(I)cc4F)n(C)c(=O)c(C)c32)c1
- % of control [3]: 94%

Compound: CNC(=O)Nc1ccc(-c2nc(N3CC4CCC(C3)O4)c3cnn(C4CCC5(CC4)OCCO5)c3n2)cc1
- % of inhibition [4]: 5%

Compound: Cc1cc(C)cc([C@@H]2c3cc(C)ccc3NC(=O)CN2C(=O)c2ccc(Br)s2)c1
- % of activity ([5]; at 1 µM): 102%
- % of activity ([5]; at 10 µM): 103%

Compound: CN(C)C/C=C/C(=O)Nc1ccc(C(=O)N2CCCC(Nc3ncc(Cl)c(-c4c[nH]c5ccccc45)n3)C2)cc1 (stereo not drawn)
- % of control [6]: 94%

Compound: N#Cc1cccc(-c2c[nH]c3ncnc(N4CCOCC4)c23)c1
- % of inhibition [7]: 3%
